# pIC50: −log10 of the molar value.
# Key:
# [1] = target: Poly [ADP-ribose] polymerase 1 (Homo sapiens, UniProt P09874); experiment: In vitro inhibitory concentration against human recombinant Poly (ADP-ribose) polymerase 1
# [2] = Concentration in plasma was measured at 2 hrs in mice following po administration of 32 mg/kg; type: ADME, organism-based; parameters: dose 32 mg/kg, route oral; settings: mouse
# [3] = Concentration in plasma was measured at 0.5 hrs in mice following po administration of 32 mg/kg; type: ADME, organism-based; parameters: dose 32 mg/kg, route oral; settings: mouse
# [4] = Concentration in brain tissue was measured at 2 hrs in mice following po administration of 32 mg/kg; type: ADME, organism-based; parameters: dose 32 mg/kg, route oral; settings: mouse
# [5] = Concentration in brain tissue was measured at 0.5 hrs in mice following po administration of 32 mg/kg; type: ADME, organism-based; parameters: dose 32 mg/kg, route oral; settings: mouse
# [6] = Concentration in plasma was measured at 0.5 hrs in mice following ip administration of 32 mg/kg; type: ADME, organism-based; parameters: dose 32 mg/kg, route intraperitoneal; settings: mouse
# [7] = Concentration in brain tissue was measured at 0.5 hrs in mice following ip administration of 32 mg/kg; type: ADME, organism-based; parameters: dose 32 mg/kg, route intraperitoneal; settings: mouse
# [8] = Ratio of brain tissue concentration to that of plasma concentration; type: ADME; settings: mouse, brain / plasma
# Poly [ADP-ribose] polymerase 1, sequence (P09874 whole entry): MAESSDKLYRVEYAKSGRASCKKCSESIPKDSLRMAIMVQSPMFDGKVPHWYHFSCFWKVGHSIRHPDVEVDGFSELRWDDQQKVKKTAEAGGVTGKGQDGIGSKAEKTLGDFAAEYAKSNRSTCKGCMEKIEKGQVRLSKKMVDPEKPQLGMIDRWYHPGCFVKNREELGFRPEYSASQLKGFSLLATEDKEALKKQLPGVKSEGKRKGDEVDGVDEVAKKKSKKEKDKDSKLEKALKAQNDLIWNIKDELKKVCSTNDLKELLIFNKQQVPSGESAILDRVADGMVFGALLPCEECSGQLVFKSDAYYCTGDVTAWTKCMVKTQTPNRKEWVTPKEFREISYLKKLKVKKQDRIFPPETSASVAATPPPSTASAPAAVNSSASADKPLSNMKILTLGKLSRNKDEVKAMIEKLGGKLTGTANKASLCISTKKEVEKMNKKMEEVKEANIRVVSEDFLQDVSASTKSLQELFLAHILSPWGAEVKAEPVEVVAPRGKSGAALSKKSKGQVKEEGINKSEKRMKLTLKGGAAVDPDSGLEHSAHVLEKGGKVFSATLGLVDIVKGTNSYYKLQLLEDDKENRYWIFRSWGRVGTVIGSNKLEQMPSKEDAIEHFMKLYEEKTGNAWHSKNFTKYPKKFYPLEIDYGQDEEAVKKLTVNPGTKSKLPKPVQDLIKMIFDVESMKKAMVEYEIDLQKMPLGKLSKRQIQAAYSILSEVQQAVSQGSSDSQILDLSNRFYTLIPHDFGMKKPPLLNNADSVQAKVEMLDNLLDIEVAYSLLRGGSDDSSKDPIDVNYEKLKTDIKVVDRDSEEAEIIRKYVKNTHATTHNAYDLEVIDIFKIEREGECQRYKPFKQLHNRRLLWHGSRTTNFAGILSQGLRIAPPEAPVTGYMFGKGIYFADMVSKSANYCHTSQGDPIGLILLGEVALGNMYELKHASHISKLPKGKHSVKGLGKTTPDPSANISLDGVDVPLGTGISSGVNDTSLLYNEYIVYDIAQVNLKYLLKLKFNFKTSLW
Structure (SMILES),pIC50 [1],concentration at 2 h [2],concentration at 0.5 h [3],concentration at 2 h [4],concentration at 0.5 h [5],concentration at 0.5 h [6],concentration at 0.5 h [7],Kp [8]
Oc1nc(CCCN2CC=C(c3ccccc3F)CC2)nc2ccccc12,7.43,–,–,–,–,–,–,–
O=c1[nH]c(CCCN2CC=C(c3cccc(F)c3)CC2)nc2ccccc12,7.64,–,–,–,–,–,–,–
N#Cc1ccc(C2=CCN(CCCc3nc(O)c4ccccc4n3)CC2)cc1,8.22,5200 ng/mL,20000 ng/mL,540 ng/g,4500 ng/g,–,–,–
Oc1nc(CCCN2CC=C(c3ccccc3)CC2)nc2ccc(Cl)cc12,7.57,15500 ng/mL,16200 ng/mL,14200 ng/g,18600 ng/g,–,–,–
O=c1[nH]c(CCCN2CC=C(c3ccccc3)CC2)nc2c(Cl)cc(Cl)cc12,7.41,–,–,–,–,–,–,–
Oc1nc(CCCN2CCC3=C(CCc4ccccc43)C2)nc2ccccc12,7.92,–,–,–,–,–,–,–
Oc1nc(CCCN2CC=C(c3ccccc3)CC2)nc2cc(Cl)ccc12,6.60,510 ng/mL,80 ng/mL,2660 ng/g,6120 ng/g,–,–,–
O=c1[nH]c(CCCN2CC=C(c3ccccc3)CC2)nc2cccc(Cl)c12,7.19,2170 ng/mL,4180 ng/mL,2820 ng/g,4600 ng/g,1200 ng/mL,7000 ng/g,5.8
Cc1ccc(C2=CCN(CCCc3nc(O)c4ccccc4n3)CC2)cc1,7.77,840 ng/mL,5400 ng/mL,2340 ng/g,5310 ng/g,–,–,–
CCc1cccc2c(O)nc(CCCN3CC=C(c4ccccc4)CC3)nc12,7.18,–,–,–,–,–,–,–
COc1ccccc1C1=CCN(CCCc2nc(O)c3ccccc3n2)CC1,6.77,–,–,–,–,–,–,–
Oc1nc(CCCN2CC=C(c3ccc(-[n+]4ccccc4)cc3)CC2)nc2ccccc12,7.92,620 ng/mL,14100 ng/mL,300 ng/g,2760 ng/g,–,–,–
O=c1[nH]c(CCCC2CC=C(c3ccccc3)CC2)nc2ccccc12 (centres undefined),< 6.00,–,–,–,–,–,–,–
Cc1cccc2c(=O)[nH]c(CCCN3CC=C(c4ccccc4)CC3)nc12,7.85,400 ng/mL,940 ng/mL,730 ng/g,2540 ng/g,–,–,–
Oc1nc(CCCN2CCN(c3ccccc3)CC2)nc2ccccc12,–,530 ng/mL,2270 ng/mL,300 ng/g,2850 ng/g,–,–,–

# From ChEMBL document CHEMBL1137205, “Rational approaches to discovery of orally active and brain-penetrable quinazolinone inhibitors of poly(ADP-ribose)polymerase” (J Med Chem, 2004)
